Measured values as given in PMC12080252, “Daphnia magna as an Alternative Model for (Simultaneous) Bioaccumulation and Chronic Toxicity Assessment—Controlled Exposure Study Indicates High Hazard of Heterocyclic PAHs” (Environmental Science & Technology, 2025).
Where “and” joins values, the source holds several entries; their conditions need not be identical. Equal values may be shown once.

How the values were obtained:
Daphnia magna = test: Chronic reproduction toxicity test (OECD 211) with passive dosing; assay type: in vivo; conditions: for EC10: 21-day reproduction inhibition; for % inhibition, avr.: average of vessels; for #live offspring per mother, Total: one value per vessel; for wet weight of parent daphnids, change relative to control: end of 21-d exposure
Method: (§1) Chronic toxicity tests with D. magna were performed according to the OECD guideline 211^2 using the passive dosing method. Two days before the tests, the exposure solution was predosed by shaking 10 PDMS disks loaded with the test substance in 1 L of medium for 48 h. Each test vessel (250 mL) was first flushed with the dosed solution to equilibrate the vessel walls, then filled with 100 mL of test solution, one PDMS disk, and one juvenile D. magna (<24 h old). The tests were conducted in loosely closed bottles to allow for adequate gas exchange and limit evaporation. The exposure medium was changed three times per week, and the animals were fed D. subspicatus daily (0.2 mg C/Daphnia/day). The number of offspring per adult and behavioral or physiological effects (e.g., size, movement, unhatched eggs) were recorded daily (except weekends). Dissolved oxygen, pH and temperature were also measured each week.
(§2) Tests were performed under static conditions (20 °C, 16:8 h light/dark cycle, 1 klux). Each compound was tested in 10 replicates for controls and limit tests (a single high concentration exposure to screen for significant toxic effects) and with 6 or 10 replicates for concentration–response tests. Reuse of silicone disks was included in some experiments (Table S3). Reproductive inhibition was assessed by counting offspring over 21 days. The number of offspring per mother in treatment groups was compared to controls, and the percent inhibition per replicate was used to generate concentration–response curves. A minimum of five concentrations per compound were tested to determine EC10, EC20, and EC50 values. For each test, three sets of polymers were rotated between loading, dosing, and exposure stages (Figure S2). Initial (before animal and food addition) and final (after 2–3 days of exposure, just before the medium change) water concentrations (CW) were monitored, with the latter collected after centrifugation to remove biomass (e.g., algae, carapaces, or feces).
(§3) All data are presented as average ± standard deviation. Student’s t test was used to analyze significance (p-value >0.05 considered insignificant). Concentration–response curve parameters (effective concentrations and confidence limits) and plots were generated using GraphPad Prism software (V6.01, GraphPad Software, La Jolla, CA, USA). The exposure concentrations were log10 transformed before fitting. Then a four parameters logistic model with variable slope was used to obtain EC10, EC20 and EC50 (see section S5 in SI file for details). Effective chemical activities (EA50) for chronic toxicity were calculated as follows: [drawing 1] 1 […]
(§4) S5. Concentration-response curve (CRC) fitting procedure
(§5) GraphPad Prism version 9.5.1 was used to fit CRC and obtain EC10, EC20, EC50 values and their confidence intervals. The exposure concentrations were log10 transformed before fitting. Then a four parameters logistic model with variable slope was used that describes the response as a function of following four parameters: minimum response (the Bottom), maximum response (the Top), the concentration required to cause a response half-way between the minimum and maximum (the EC50) and the slope of the curve […]
(§6) concentration. The Top was constrained to 100, the Bottom was constrained to 0, the HillSlope was not […]
(§7) !"# %& = !"# %&* − , × !"# 3 * 4
(§8) (, + ,((!"# %&'(<=)×-.!!/!"01)
(§9) Figure S7 Concentration-response curves of four NSO-PAHs based on reproductive inhibition during 21-day chronic toxicity tests with D. magna.
(§10) (1 picture or pasted object on this page, not shown here)

[1] = as above; assay type: in vivo, Daphnia magna; conditions: Daphnia magna, in vivo, other: waterborne exposure by passive dosing from PDMS disks, 21-day test, read-out: % offspring mortality of total offspring
Method: as §1, §2, §3, §4, §5, §6, §7, §8, §9, §10

[2] = DNF 0.2 µg/L (0.125 g/L methanol), 21 days
[3] = DNF 0.41 µg/L (0.5 g/L methanol), 21 days
[4] = DNF 1.24 µg/L (1 g/L methanol), 21 days
[5] = DNF […] (0.25 g/L methanol), 21 days
[6] = DNF avr. medium concentration 1.35 µg/L, conc. of methanol for dosing 1.5 g/L, 21 days, single vessels 1-6 (replicates)

c1ccc2c(c1)ccc1oc3ccc4ccccc4c3c12 [DNF, dinaphtho[2,1-b:1′,2′-d]furan]
EC10 (Daphnia magna; 97.5-2.5% confidence interval in brackets): 0.14 (0.05-0.28) μg L^-1 | EC10 (Daphnia magna; confidence interval in brackets): 0.52 (0.18-1.03) nmol L^-1 | growth of parent D. magna (wet weight) (Daphnia magna; 21-day test, p-value <0.05): did not except at saturation | LOEC (lowest observed effect concentration, reproduction inhibition) (Daphnia magna; 21 days, p-value <0.05 vs controls): 0.2 μg L^–1 | #average live offspring (Daphnia magna; [2]): 75 | %offspring mortality (Daphnia magna; [2]): 2.61% | % inhibition, avr. (Daphnia magna; [2]): 12.9% | #total live offspring (Daphnia magna; DNF 0.2 µg/L (0.125 g/L methanol), 21 days, sum of all vessels): 447 | % inhibition (per vessel) (Daphnia magna; DNF 0.2 µg/L (0.125 g/L methanol), live offspring vs controls, 21 days, per vessel): 15.8% | #average live offspring (Daphnia magna; [3]): 63 | %offspring mortality (Daphnia magna; [3]): 5.09% | % inhibition, avr. (Daphnia magna; [3]): 25.8% | #total live offspring (Daphnia magna; DNF 0.41 µg/L (0.5 g/L methanol), 21 days, sum of all vessels): 317 | mother animal mortality (Daphnia magna; DNF 0.41 µg/L (0.5 g/L methanol), vessel 3, day 5): dead | #average live offspring (Daphnia magna; [4]): 59 | %offspring mortality (Daphnia magna; [4]): 11.81% | % inhibition, avr. (Daphnia magna; [4]): 31.6% | #total live offspring (Daphnia magna; DNF 1.24 µg/L (1 g/L methanol), 21 days, sum of all vessels): 351 | #average live offspring (Daphnia magna; [5]): 69 | %offspring mortality (Daphnia magna; [5]): 4.95% | % inhibition, avr. (Daphnia magna; [5]): 19.1% | #total live offspring (Daphnia magna; DNF […] (0.25 g/L methanol), 21 days, sum of all vessels): 346 | mother animal mortality (Daphnia magna; DNF […] (0.25 g/L methanol), vessel 6, day 5): dead | #live offspring per mother, Total (Daphnia magna; DNF avr. medium concentration 0.2 µg/L (methanol for dosing 0.125 g/L), 21 days): 75 and 64 and 72 and 66 and 98 | #live offspring per mother, Total (Daphnia magna; DNF avr. medium concentration 0.41 µg/L (methanol for dosing 0.5 g/L), 21 days): 59 and 75 and 67 and 55 and 61 | #live offspring per mother, Total (Daphnia magna; DNF avr. medium concentration 1.24 µg/L (methanol for dosing 1 g/L), 21 days): 62 and 51 and 53 and 60 and 50 and 75 | %offspring mortality (Daphnia magna; DNF avr. medium concentration 1.35 µg/L, conc. of methanol for dosing 1.5 g/L, 21 days): 16.71% | % inhibition, avr. (live offspring per mother) (Daphnia magna; DNF avr. medium concentration 1.35 µg/L, conc. of methanol for dosing 1.5 g/L, 21 days, average of 6 vessels): 39.8% | #average live offspring (Daphnia magna; DNF avr. medium concentration 1.35 µg/L, conc. of methanol for dosing 1.5 g/L, 21 days, mean of 6 vessels): 52 | #dead offspring per mother, Total (per vessel) (Daphnia magna; [6]): 9 and 12 and 16 and 5 and 8 | #live offspring per mother, Total (per vessel) (Daphnia magna; [6]): 49 and 74 and 37 and 40 and 53 and 56 | % inhibition (live offspring per mother, per vessel) (Daphnia magna; [6]): 42.7% and 13.5% and 56.7% and 53.2% and 38.0% and 34.5% | #total live offspring (Daphnia magna; DNF avr. medium concentration 1.35 µg/L, conc. of methanol for dosing 1.5 g/L, 21 days, sum of 6 vessels): 309 | EA50 (effective chemical activity) (Daphnia magna; EC50/subcooled liquid solubility, eq 1): 0.032 unitless | Classification according to REACH Annex XIII (Daphnia magna; chronic EC10 < 10 μg L^–1): toxic to aquatic life | CTLBB (critical target lipid body burden) (Daphnia magna; derived from chronic EC10 using eq 3): 3.4 μmol g^-1 octanol | wet weight of parent daphnids, change relative to control (Daphnia magna; 0.18 µg/L (Fig. S9)): +1% | wet weight of parent daphnids, change relative to control (Daphnia magna; 0.24 µg/L (Fig. S9)): -2% | wet weight of parent daphnids, change relative to control (Daphnia magna; 0.39 µg/L (Fig. S9)): -6% | wet weight of parent daphnids, change relative to control (Daphnia magna; 1.16 µg/L (Fig. S9)): 2% | wet weight of parent daphnids, change relative to control (Daphnia magna; 1.30 µg/L (Fig. S9)): -6% | wet weight of parent daphnids, change relative to control (Daphnia magna; 1.44 µg/L (Fig. S9)): -27% | mortality at 21 days, 0.18 µg/L ([1]; 0.18 µg/L (Fig. S8)): 2.6% | mortality at 21 days, 0.24 µg/L ([1]; 0.24 µg/L (Fig. S8)): 5% | mortality at 21 days, 0.39 µg/L ([1]; 0.39 µg/L (Fig. S8)): 5.1% | mortality at 21 days, 1.16 µg/L ([1]; 1.16 µg/L (Fig. S8)): 11.8% | mortality at 21 days, 1.3 µg/L ([1]; 1.30 µg/L (Fig. S8)): 16.7% | mortality at 21 days, 1.44 µg/L ([1]; 1.44 µg/L (Fig. S8)): 42.2%
